Laboratory results: US11891371B2, “Piperonylic acid derivative and preparation and application thereof” (SHENYANG SINOCHEM AGROCHEMICALS R&D CO., LTD., priority 2017, dated 2024)
Where two headings read alike, the source gives them in different places.

Columns and labels:
rice leaf folder = experiment: Determination of activity against rice leaf folder in field trial (foliar spray, 15 days mortality); format: in vivo; conditions: after 15 days
Method: A certain concentration of test compounds was sprayed on the leaf surfaces in the peak of the hatching period of the rice leaf folders, with a spray volume of 450 L per hectare. The area of a rice plot was 32 square meters. Three replicates were set for each treatment. After 15 days, the number of surviving rice leaf folders was investigated, and the mortality rate was calculated. See Table 3 for parallel determination results of activity of compounds I-8 and KC2 against rice leaf folder.

housefly larva = experiment: Determination of activity against housefly larva (feed poisoning method, third instar, 72 h mortality); format: in vivo; conditions: after 72 hours
Method: Third instar housefly larvae were tested by a feed poisoning method. 1000 mg/L, of acetone solution of the test compounds was diluted into a required concentration of test liquid by using a certain concentration of milk powder emulsion according to a test design dose. The test liquid was uniformly added to a 6 cm diameter petri dish provided with filter paper by using a pipette, with 1 ml per dish. The third instar housefly larvae were put into the petri dish. Three replicates were set for each treatment. Then the petri dishes were maintained in a standard observation room. After 72 hours, the number of surviving housefly larvae was investigated, and the mortality rate was calculated. See Table 5 for parallel determination results of activity of compounds I-51 and KC2 against housefly larva.

beet armyworm = experiment: Determination of activity against beet armyworm (cabbage leaf disc spray, third instar, 96 h mortality); format: in vivo; conditions: after 96 hours
Method: (§1) According to the solubility of test compounds, the compounds are dissolved in acetone or dimethyl sulfoxide, and then diluted with 0.1% aqueous solution of Tween 80 to form a required concentration of 50 ml test liquid, The content of the acetone or the dimethyl sulfoxide in the total solution is not more than 10%.
The cabbage leaves were punched into circular leaf discs with a diameter of 1 cm by using a puncher. A certain concentration of test compound was sprayed on both sides of each leaf disc at a spray volume of 0.5 ml by a handheld Airbrush. After the leaf discs were dried in shade, 12 test insects (third instar) were put into the leaf discs. Three replicates were set for each treatment. The pure water treatment was set as control check. The treated discs were placed in a chamber of 24° C., 60%-70% relative humidity and day light. After 96 hours, the number of surviving insects was investigated, and the mortality rate was calculated. See Table 2 for parallel determination results of activity of compounds 1-8 and KC2 (compound 3-1 in U.S. Pat. No. 8,853,440B2) against beet armyworm.

adult spider mite = experiment: Determination of acaricidal activity against adult spider mite (bean leaf spray, 72 h mortality); format: in vivo; conditions: after 72 hours
Method: According to the solubility of test compounds, the compounds are dissolved in acetone or dimethyl sulfoxide, and then diluted with 0.1% aqueous solution of Tween 80 to form a required concentration of 50 ml test liquid. The content of the acetone or the dimethyl sulfoxide in the total solution is not more than 10%.
The adult spider mites were put into two true leaves of bean plants. After the number of mites was investigated, the solution of certain concentrations of test compounds was sprayed by using a handheld Airbrush. Three replicates were set for each treatment. Then the leaves were maintained in a standard observation room. After 72 hours, the number of surviving mites was observed, and the mortality rate was calculated.

armyworm = experiment: Determination of activity against armyworm (corn leaf dip, third instar, 72 h mortality); format: in vivo; conditions: foliar; for mortality at 0.1 µg/mL: read-out: Mortality rate (%) 0.1 mg/L
Method: as §1
The middle leaves of fresh corns were cut into small sections of 3 cm, and dipped into a solution of the required concentration of test compounds for 10 seconds. After dried in shade, the middle leaves were placed in a 9 cm diameter petri dish provided with filter paper. Fourteen regular healthy test insects (third instar) were put into the leaves. Four replicates were set for each treatment. The pure water treatment was set as control check. The treated discs were placed in a chamber of is 24° C., 60%-70% relative humidity and day light. After 72 hours, the number of surviving insects was investigated, and the mortality rate was calculated.

diamondback moth = experiment: Determination of activity against diamondback moth (cabbage leaf disc dip, second instar, 72 h mortality); format: in vivo; conditions: Plutella xylostella, foliar, 1 mg/L, read-out: mortality rates against diamondback moth
Method: as §1
The leaves of cabbage grown in greenhouse were selected, removed the surface waxy layers, punched into circular leaf discs with a diameter of 2 cm by using a puncher, and dipped into a solution of the required concentration of test compounds for 10 seconds. After dried in shade, the circular leaf discs were placed in a 9 cm diameter petri dish provided with filter paper. Ten regular healthy test insects (second instar) were put into the leaf discs. Four replicates were set for each treatment. The pure water treatment was set as control check. The treated discs were placed in a chamber of 24° C., 60%-70% relative humidity and day light. After 72 hours, the number of surviving insects was investigated, and the mortality rate was calculated.

green peach aphid = experiment: Determination of activity against green peach aphid (cabbage leaf spray, 48 h mortality); format: in vivo; conditions: Myzus persicae, 10 mg/L, read-out: mortality rates against green peach aphid
Method: as §1
A layer of filter paper was covered on the bottom of the 6 cm diameter petri dish. To the petri dish, a proper amount of tap water was added dropwise for moisture retention. Cabbage leaves, on which 15-30 aphids exist, with a suitable size (about 3 cm in diameter) were cut from the cabbage plants breeding peach aphids. After winged aphids and the aphids on the front surface of the leaves were removed, the leaves were placed in the petri dish in a manner of backing on to the petri dish, and sprayed with a handheld Airbrush, with a pressure of 10 psi (about 0.7 kg/cm^2) and a spray volume of 0.5 ml, Three replicates were set for each treatment. After treatment, the cabbage leaves were placed in a standard observation room. After 48 hours, the number of surviving aphids was investigated, and the mortality rate was calculated.

Plutella xylostella = conditions: 100 ppm; disclosed in WO2005073165A1, US2007275980A1, US20140206727A1; cited from earlier work
Spodoptera litura = conditions: 100 ppm; disclosed in WO2005073165A1, US2007275980A1, US20140206727A1; cited from earlier work
[1] = 0.1 mg/L, armyworm, 72 hours, parallel determination
[2] = 0.3 mg/L, armyworm, 72 hours, parallel determination, read-out: Mortality rate (%) 0.3 mg/L
[3] = 0.3 mg/L, 72 hours, read-out: mortality rates against armyworm

Row | SMILES | Mortality rate (%) (adult spider mite; 10 mg/L) | Mortality rate (%) (adult spider mite; 100 mg/L) | Mortality rate (%) (adult spider mite; 600 mg/L) | mortality at 0.3 µg/mL (armyworm; [3]) | mortality at 1 µg/mL (diamondback moth) | other results
1 | CN(C(=O)c1ccccc1)c1cccc(C(=O)Nc2c(Br)cc(C(F)(C(F)(F)F)C(F)(F)F)cc2C(F)(F)F)c1F [KC2, Broflanilide, reference compound] | 0% | 0% | 0% | – | – | Mortality rate (%) (rice leaf folder; 30 g/ha): 79%; Mortality rate (%) (rice leaf folder; 45 g/ha): 82%; Mortality rate (%) (housefly larva; 1 mg/L): 50%; Mortality rate (%) (housefly larva; 3 mg/L): 69.6%; Mortality rate (%) (housefly larva; 10 mg/L): 100%; Mortality rate (%) (beet armyworm; 0.2 mg/L): 66.7%; Mortality rate (%) (beet armyworm; 1 mg/L): 83.3%
2 | O=C(Nc1cccc(C(=O)Nc2c(Br)cc(C(F)(C(F)(F)F)C(F)(F)F)cc2Br)c1F)c1ccccc1 [KC3] | 0% | 0% | 0% | – | – | mortality at 0.1 µg/mL (armyworm; [1]): 28.6%; mortality at 0.3 µg/mL (armyworm; [2]): 64.3%
3 | CN(C(=O)c1ccc2c(c1)OC(F)(F)O2)c1cccc(C(=O)Nc2c(Br)cc(C(F)(C(F)(F)F)C(F)(F)F)cc2Br)c1F [Compound I-51, N-(2,6-dibromide-4-heptafluoroisopropylphenyl)-2-fluoro-3-(N-methyl-2,2-difluoro-1,3-benzodioxole-5-carboxamido)benzamide] | – | – | – | > 90% | > 90% | mortality at 0.1 µg/mL (armyworm; [1]): 85.7%; mortality at 0.3 µg/mL (armyworm; [2]): 100%; Mortality rate (%) (housefly larva; 1 mg/L): 75%; Mortality rate (%) (housefly larva; 3 mg/L): 90.5%; Mortality rate (%) (housefly larva; 10 mg/L): 100%; mortality at 10 µg/mL (green peach aphid): > 80%
4 | O=C(Nc1cccc(C(=O)Nc2ccc(C(F)(C(F)(F)F)C(F)(F)F)cc2)c1F)c1ccc2c(c1)OC(F)(F)O2 [Compound C1] | 0% | 0% | 0% | – | – | –
5 | CN(C(=O)c1ccc2c(c1)OC(F)(F)O2)c1cccc(C(=O)Nc2c(I)cc(C(F)(C(F)(F)F)C(F)(F)F)cc2I)c1F [Compound I-44] | – | – | – | > 90% | > 90% | –
6 | O=C(Nc1cccc(C(=O)Nc2c(Br)cc(C(F)(C(F)(F)F)C(F)(F)F)cc2C(F)(F)F)c1F)c1ccc2c(c1)OC(F)(F)O2 [Compound I-2] | – | – | – | > 90% | > 90% | –
7 | O=C(Nc1cccc(C(=O)Nc2c(Br)cc(C(F)(C(F)(F)F)C(F)(F)F)cc2I)c1F)c1ccc2c(c1)OC(F)(F)O2 [Compound I-5, N-(2-bromo-6-iodo-4-perfluoroisopropylphenyl)-3-(2,2-difluoro-1,3-benzodioxole-5-carboxamido)-2-fluorobenzamide] | – | – | – | > 90% | > 90% | –
8 | CN(C(=O)c1ccc2c(c1)OC(F)(F)O2)c1cccc(C(=O)Nc2c(Br)cc(C(F)(C(F)(F)F)C(F)(F)F)cc2C(F)(F)F)c1F [Compound I-45, N-(2-bromo-4-heptafluoroisopropyl-6-trifluoromethylphenyl)-2-fluoro-3-(N-methyl-2,2-difluoro-1,3-benzodioxole-5-carboxamido) Benzamide] | – | – | – | > 90% | > 90% | –
9 | CN(C(=O)c1ccc2c(c1)OC(F)(F)O2)c1cccc(C(=O)Nc2c(Br)cc(C(F)(C(F)(F)F)C(F)(F)F)cc2I)c1F [Compound I-48, N-(2-bromo-6-iodo-4-perfluoroisopropylphenyl)-2-fluoro-3-(N-methyl-2,2-difluoro-1,3-benzodioxole-5-carboxamido)benzamide] | – | – | – | > 90% | > 90% | –
10 | O=C(Nc1cccc(C(=O)Nc2c(Br)cc(C(F)(C(F)(F)F)C(F)(F)F)cc2Br)c1F)c1ccc2c(c1)OC(F)(F)O2 [Compound I-8] | 93.3% | 100% | 100% | > 90% | > 90% | Mortality rate (%) (rice leaf folder; 30 g/ha): 83%; Mortality rate (%) (rice leaf folder; 45 g/ha): 85%; mortality at 0.1 µg/mL (armyworm; [1]): 100%; mortality at 0.3 µg/mL (armyworm; [2]): 100%; mortality at 10 µg/mL (green peach aphid): > 80%; Mortality rate (%) (beet armyworm; 0.2 mg/L): 83.3%; Mortality rate (%) (beet armyworm; 1 mg/L): 91.7%
11 | Cc1cc(C(F)(C(F)(F)F)C(F)(F)F)cc(C)c1NC(=O)c1cccc(NC(=O)c2ccc3c(c2)OC(F)(F)O3)c1 [KC1] | 0% | 0% | 0% | – | – | mortality rates against Plutella xylostella (Plutella xylostella): ≥ 70%; mortality rates against Spodoptera litura (Spodoptera litura): ≥ 70%; mortality at 0.1 µg/mL (armyworm; 72 h): 0%; mortality at 0.3 µg/mL (armyworm; 72 h, read-out: Mortality rate (%) 0.3 mg/L): 0%
12 | O=C(Nc1cccc(C(=O)Nc2c(Br)cccc2Br)c1F)c1ccc2c(c1)OC(F)(F)O2 [Compound C2] | 0% | 0% | 0% | – | – | –
